Data taken from paper PMC1950558 (Nucleic Acids Research, 2007).
Read-outs that look alike come from different tables or passages of the source.

Columns and labels:
[1] = molecular target: T1, human AMP kinase 1 (hAK1, cytosolic adenylate kinase) (Homo sapiens, UniProt P00568); experiment: coupled spectrophotometric NMP kinase assay, hAK1; format: biochemical; settings: for Km: hAK1, 37°C, 1 mM ATP, – = Non detectable; for phosphorylation (in words): hAK1
T1 sequence (P00568 1-194): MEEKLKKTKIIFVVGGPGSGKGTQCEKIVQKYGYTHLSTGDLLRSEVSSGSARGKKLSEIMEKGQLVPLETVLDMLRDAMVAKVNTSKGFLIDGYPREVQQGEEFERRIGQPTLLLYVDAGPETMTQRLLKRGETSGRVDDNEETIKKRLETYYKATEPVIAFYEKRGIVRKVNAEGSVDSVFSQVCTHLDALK

[2] = molecular target: human AMP kinase 2 (hAK2, mitochondrial adenylate kinase) (Homo sapiens, UniProt P54819); experiment: coupled spectrophotometric NMP kinase assay, hAK2; settings: for Km: hAK2, 37°C, 1 mM ATP, – = Non detectable; for phosphorylation (in words): hAK2
[3] = molecular target: T2, human UMP-CMP kinase (hUCK) (Homo sapiens, UniProt P30085); experiment: coupled spectrophotometric NMP kinase assay, hUCK; format: biochemical; settings: for Km: 37°C, 1 mM ATP; for Relative Vmax: relative to kcat of D-CMP (100 = kcat 130 s^−1)
T2 sequence (P30085 1-196): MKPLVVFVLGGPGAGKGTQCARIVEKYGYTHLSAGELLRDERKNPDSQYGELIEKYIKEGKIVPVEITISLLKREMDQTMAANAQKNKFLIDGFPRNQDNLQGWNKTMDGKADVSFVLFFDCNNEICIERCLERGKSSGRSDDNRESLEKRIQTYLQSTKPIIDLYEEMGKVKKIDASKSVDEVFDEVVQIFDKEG

[4] = molecular target: T3, human dTMP kinase (hTMPK) (Homo sapiens, UniProt P23919); experiment: coupled spectrophotometric NMP kinase assay, hTMPK; format: biochemical
T3 sequence (P23919 1-212): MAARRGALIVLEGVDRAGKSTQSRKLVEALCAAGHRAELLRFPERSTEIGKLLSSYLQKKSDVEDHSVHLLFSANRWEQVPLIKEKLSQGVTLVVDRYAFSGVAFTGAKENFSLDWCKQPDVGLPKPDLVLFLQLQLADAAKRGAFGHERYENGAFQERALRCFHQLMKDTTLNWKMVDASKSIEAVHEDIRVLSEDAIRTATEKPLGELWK

[5] = molecular target: T4, hTMPK (Homo sapiens, UniProt P23919); experiment: fluorescence competition assay with MABA-dTDP; format: binding
T4 sequence (P23919 1-212): T3 sequence (P23919 1-212)

[6] = molecular target: T2, human UMP-CMP kinase (hUCK); settings: cited from earlier work
[7] = tested on: chronic B hepatitis virus load; settings: woodchuck, in vivo; less efficiently than L-dC or L-dT; cited from earlier work
[8] = tested on: hdCK; settings: first phosphorylation of L-dT by hdCK; cited from earlier work
[9] = tested on: hTK2; settings: first phosphorylation of L-dT by hTK2; cited from earlier work
[10] = tested on: phosphoglycerate kinase; settings: conversion of L-dTDP into L-dTTP; cited from earlier work
[11] = tested on: Nc1ccn(C2OC(COP(=O)(O)O)C(O)C2O)c(=O)n1; experiment: purified protein, by the assay type; settings: other: hAK2, 37°C, 1 mM ATP; – = Non detectable; 37.0 °C
[12] = tested on: Nc1ncnc2c1ncn2[C@@H]1C[C@@H](O)[C@H](COP(=O)(O)O)O1; experiment: purified protein, by the assay type; settings: other: hAK2; – = Non detectable
[13] = 2 mM ATP and 2 mM Mg^2+ (Figure 2)

For `Nc1ncnc2c1ncn2[C@@H]1O[C@H](COP(=O)(O)O)[C@@H](O)[C@H]1O` [D-AMP], the Km [1] was 140 ± 20 µM and the Km [2] was 80 ± 20 µM.

With `O=c1ccn([C@@H]2O[C@H](COP(=O)(O)O)[C@@H](O)[C@H]2O)c(=O)[nH]1` [D-UMP] the Km [1] was 6000 ± 2000 µM, the Km [3] was 50 ± 10 µM and the “Relative Vmax” value [3] was 100%.

For `Nc1ncnc2c1ncn2[C@H]1C[C@H](O)[C@@H](COP(=O)(O)O)O1` [D-dAMP], the Km [1] was 1500 ± 300 µM and the Km [2] was 210 ± 50 µM.

In the case of `Nc1ccn([C@H]2C[C@H](O)[C@@H](COP(=O)(O)O)O2)c(=O)n1` [D-dCMP], the “phosphorylation (in words)” value [1] is reported as “not substrates”, the Km [3] is reported as 1000 ± 100 µM and the “Relative Vmax” value [3] is reported as 61 ± 4%. For the same molecule, the “phosphorylation (in words)” value [2] was “not substrates”.

For `O=c1ccn([C@H]2C[C@H](O)[C@@H](COP(=O)(O)O)O2)c(=O)[nH]1` [D-dUMP], the “phosphorylation (in words)” value [1] was “not substrates”, the Km [4, 13] was 170 ± 10 µM and the kcat [4, 13] was 4.8 ± 0.6 s⁻¹. The Km [3] was 1300 ± 300 µM, the “Relative Vmax” value [3] was 5.1 ± 0.5% and the Kd ([5]; read-out: dissociation constant KD, calculated from IC50 with Equation (1)) was 150 µM. For the same molecule, the “phosphorylation (in words)” value [2] was “not substrates”.

For `Nc1ccn([C@@H]2CS[C@H](COP(=O)(O)O)O2)c(=O)n1` [L-3TCMP], the Km ([6]; for comparison) is listed as 150 ± 20 µM and the “Relative Vmax” value ([6]; relative to D-CMP) is listed as 27%.

For `Nc1ncnc2c1ncn2[C@@H]1C[C@@H](O)[C@H](CO)O1` [L-dA], the “effect on virus load (in words)” value [7] is listed as “reduced the virus load”.

In the case of `Cc1cn([C@@H]2C[C@@H](O)[C@H](CO)O2)c(=O)[nH]c1=O` [L-dT, β-L-thymidine], the Kd [5] is given as 450 µM, the catalytic efficiency [8] is given as 16000 M⁻¹ s⁻¹ and the catalytic efficiency [9] is given as 1e+07 M⁻¹ s⁻¹.

In the case of `Cc1cn(C2CC(O)C(COP(=O)(O)OP(=O)(O)O)O2)c(=O)[nH]c1=O` [L-dTDP], the catalytic efficiency [10] is listed as 500 M⁻¹ s⁻¹.

In the case of `[N-]=[N+]=N[C@@H]1[C@H](O)[C@@H](COP(=O)(O)O)O[C@H]1n1ccc(=O)[nH]c1=O` [N3-D-dUMP], the “phosphorylation (in words)” value [1] is reported as “did not significantly phosphorylate”, the “phosphorylation (in words)” value [4] is reported as “did not significantly phosphorylate” and the “substrate inhibition at high concentration (in words)” value [3] is reported as “did not give rise to substrate inhibition”. The Km [3] was 900 ± 200 µM, the “Relative Vmax” value [3] was 89 ± 6% and the “phosphorylation (in words)” value [2] was “did not significantly phosphorylate”.

“human AMP kinase 2 (hAK2, mitochondrial adenylate kinase) (Homo sapiens)” showed a Km [11] of 6000 ± 1000 µM and a kcat/Km [12] of 70 M⁻¹ s⁻¹.
